{"source": "ChEMBL document CHEMBL5046280", "about": "“Discovery of Small-Molecule Inhibitors of the PD-1/PD-L1 Axis That Promote PD-L1 Internalization and Degradation” (J Med Chem, 2022)", "key": {"[1]": {"target": "Programmed cell death protein 1/Programmed cell death 1 ligand 1 (Homo sapiens, UniProt Q9NZQ7)", "sequence (Q15116 whole entry)": "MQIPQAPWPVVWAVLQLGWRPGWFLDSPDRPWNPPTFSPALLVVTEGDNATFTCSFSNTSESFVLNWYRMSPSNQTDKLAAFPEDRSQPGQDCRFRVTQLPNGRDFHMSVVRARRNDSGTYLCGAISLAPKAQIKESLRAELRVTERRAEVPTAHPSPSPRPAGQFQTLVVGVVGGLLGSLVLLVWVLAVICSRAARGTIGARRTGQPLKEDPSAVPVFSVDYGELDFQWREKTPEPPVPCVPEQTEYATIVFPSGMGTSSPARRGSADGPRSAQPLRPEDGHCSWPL", "sequence (Q9NZQ7 whole entry)": "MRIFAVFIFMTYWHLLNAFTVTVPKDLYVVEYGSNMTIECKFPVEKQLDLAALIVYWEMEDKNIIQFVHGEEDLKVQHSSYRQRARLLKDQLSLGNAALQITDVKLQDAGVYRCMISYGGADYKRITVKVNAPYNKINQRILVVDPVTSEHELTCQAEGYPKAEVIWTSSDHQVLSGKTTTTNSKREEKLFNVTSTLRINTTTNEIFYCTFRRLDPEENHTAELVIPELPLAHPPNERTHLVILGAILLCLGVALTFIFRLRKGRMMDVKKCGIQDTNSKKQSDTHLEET", "assay": "Inhibition of PD-1/PD-L1 (unknown origin) interaction pre-incubated for 15 mins and measured after 90 mins by TR-FRET assay", "format": "protein-complex assay"}, "B16-F10 [2]": {"tested_on": "B16-F10", "assay": "Antitumor activity against mouse B16-F10 cells implanted in […] mouse assessed as increase in infiltration of CD8+ T cells level in tumor tissue at 40 to 160 mg/kg,po administered once daily for 2 weeks in presence of PD-L1 antibody by flow cytometry", "format": "functional, organism-based", "conditions": "dose 40-160 mg/kg"}, "CT26 [3]": {"tested_on": "CT26", "assay": "Antitumor immunity activity against mouse CT26 cells implanted in BALB/c mouse assessed as upregulation of CXCL9 mRNA at 160 mg/kg, po administered once daily for 2 weeks by qRT-PCR analysis", "format": "functional, organism-based"}, "[4]": {"target": "Programmed cell death 1 ligand 1 (Homo sapiens, UniProt Q9NZQ7)", "sequence (Q9NZQ7 whole entry)": "as above", "assay": "Binding affinity to human PD-L1 assessed as dissociation constant by micro-scale thermophoresis analysis"}, "MDA-MB-231": {"tested_on": "MDA-MB-231", "assay": "Antitumor immunity against human MDA-MB-231 cells co-cultured with CD3/CD28/CD2 T cell activator stimulated human PMBC assessed as tumor cell viability measuring lactate dehydrogenase release measured for 14 hrs by PBMC killing assay relative to control", "format": "functional, cell-based"}, "CT26 [5]": {"tested_on": "CT26", "assay": "Antitumor activity against mouse CT26 cells implanted in BALB/c mouse assessed as reduction in tumor weight at 40 mg/kg, po administered once daily for 2 weeks", "format": "functional", "set-up": "scale not given: the % may be the effect or the level left"}, "B16-F10 [6]": {"tested_on": "B16-F10", "assay": "Antitumor immunity activity against mouse B16-F10 cells implanted in […] mouse assessed as increase level of IFN-gamma level in tumor tissue at 40 to 160 mg/kg, po administered once daily for 2 weeks by flow cytometry", "format": "functional, organism-based", "conditions": "dose 40-160 mg/kg"}, "B16-F10 [7]": {"tested_on": "B16-F10", "assay": "Antitumor activity against mouse B16-F10 cells implanted in […] mouse assessed as decrease in human PD-Ll expression in tumor at 80 mg/kg, po administered once daily for 2 weeks in presence of PD-L1 antibody by Western blotting analysis", "format": "functional, organism-based"}, "CT26 [8]": {"tested_on": "CT26", "assay": "Antitumor activity against mouse CT26 cells implanted in BALB/c mouse assessed as downregulation of human PD-Ll expression in tumor tissue at 160 mg/kg per day, po administered once daily for 2 weeks by Western blotting analysis", "format": "functional, organism-based"}, "B16-F10 [9]": {"tested_on": "B16-F10", "assay": "Antitumor activity against po dosed mouse B16-F10 cells implanted in […] mouse assessed as increase in infiltration of CD8+ T cells level in tumor tissue administered once daily for 2 weeks by flow cytometry", "format": "functional, organism-based", "conditions": "dose 40-160 mg/kg"}, "B16-F10 [10]": {"tested_on": "B16-F10", "assay": "Antitumor activity against mouse B16-F10 cells implanted in […] mouse assessed as decrease in nucleus to cytoplasm interaction in tumor cells at 40 to 160 mg/kg,po administered once daily for 2 weeks by H and E staining based assay", "format": "functional, organism-based", "conditions": "dose 40-160 mg/kg"}, "B16-F10 [11]": {"tested_on": "B16-F10", "assay": "Antitumor activity against mouse B16-F10 cells implanted in […] mouse assessed as decrease in nucleus to cytoplasm interaction in tumor cells at 40 to 160 mg/kg, po administered once daily for 2 weeks in presence of PD-L1 antibody by H and E staining based assay", "format": "functional, organism-based", "conditions": "dose 40-160 mg/kg"}, "CT26 [12]": {"tested_on": "CT26", "assay": "Antitumor activity against mouse CT26 cells implanted in BALB/c mouse assessed as reduction in tumor weight at 160 mg/kg, po administered once daily for 2 weeks", "format": "functional", "set-up": "scale not given: the % may be the effect or the level left"}, "CT26 [13]": {"tested_on": "CT26", "assay": "Antitumor activity against mouse CT26 cells implanted in BALB/c mouse assessed as inhibition of tumor cell growth in tumor tissue at 40 to 160 mg/kg, po administered once daily for 2 weeks by H and E staining based assay", "format": "functional, organism-based", "conditions": "dose 40-160 mg/kg"}, "B16-F10 [14]": {"tested_on": "B16-F10", "assay": "Antitumor activity against po dosed mouse B16-F10 cells implanted in […] mouse assessed as inhibition of tumor volume in presence of PD-L1 antibody administered once daily for 2 weeks", "format": "functional, organism-based", "conditions": "dose 40-160 mg/kg"}, "CT26 [15]": {"tested_on": "CT26", "assay": "Antitumor activity against mouse CT26 cells implanted in BALB/c mouse assessed as downregulation of human PD-L1 expression in tumor tissue at 80 mg/kg per day, po administered once daily for 2 weeks by Western blotting analysis", "format": "functional, organism-based"}, "CT26 [16]": {"tested_on": "CT26", "assay": "Antitumor immunity activity against mouse CT26 cells implanted in BALB/c mouse assessed as upregulation of IFN-gamma mRNA at 160 mg/kg, po administered once daily for 2 weeks by qRT-PCR analysis", "format": "functional, organism-based"}, "B16-F10 [17]": {"tested_on": "B16-F10", "assay": "Antitumor activity against mouse B16-F10 cells implanted in […] mouse assessed as inhibition of tumor volume at 80 mg/kg, po administered once daily for 2 weeks in presence of PD-L1 antibody", "format": "functional, organism-based"}, "CT26 [18]": {"tested_on": "CT26", "assay": "Antitumor activity against mouse CT26 cells implanted in BALB/c mouse assessed as reduction in tumor weight at 80 mg/kg, po administered once daily for 2 weeks", "format": "functional", "set-up": "scale not given: the % may be the effect or the level left"}, "CT26 [19]": {"tested_on": "CT26", "assay": "Antitumor activity against mouse CT26 cells implanted in BALB/c mouse assessed as increase in infiltration of CD8+ T cells level in tumor tissue po administered once daily for 2 weeks by flow cytometry", "format": "functional, organism-based", "conditions": "dose 40-160 mg/kg"}, "[20]": {"target": "Programmed cell death 1 ligand 1 (Mus musculus, UniProt Q9EP73)", "sequence (Q9EP73 whole entry)": "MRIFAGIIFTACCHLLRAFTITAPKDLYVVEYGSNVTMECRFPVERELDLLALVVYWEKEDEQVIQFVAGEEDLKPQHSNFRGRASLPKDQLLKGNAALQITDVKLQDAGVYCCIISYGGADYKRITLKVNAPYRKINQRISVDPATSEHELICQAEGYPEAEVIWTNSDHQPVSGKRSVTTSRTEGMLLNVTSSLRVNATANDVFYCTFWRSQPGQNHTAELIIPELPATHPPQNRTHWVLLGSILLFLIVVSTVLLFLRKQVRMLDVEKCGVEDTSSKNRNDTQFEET", "assay": "Binding affinity to mouse PD-L1 assessed as dissociation constant by micro-scale thermophoresis analysis"}, "B16-F10 [21]": {"tested_on": "B16-F10", "assay": "Antitumor activity against mouse B16-F10 cells implanted in […] mouse assessed as inhibition of tumor volume at 160 mg/kg, po administered once daily for 2 weeks", "format": "functional, organism-based"}, "B16-F10 [22]": {"tested_on": "B16-F10", "assay": "Antitumor immunity activity against mouse B16-F10 cells implanted in […] mouse assessed as increase level of IFN-gamma mRNA at 40 to 160 mg/kg, po administered once daily for 2 weeks in presence of PD-L1 antibody by […]", "format": "functional, organism-based", "conditions": "dose 40-160 mg/kg"}, "[23]": {"assay": "Toxicity in BALB/c mouse harbouring mouse CT26 cells assessed as mortality at 40 to 120 mg/kg, po administered once daily for 2 weeks", "format": "organism-based", "conditions": "in vivo, 336 h, dose 40-120 mg/kg"}, "CT26 [24]": {"tested_on": "CT26", "assay": "Antitumor immunity activity against mouse CT26 cells implanted in BALB/c mouse assessed as upregulation of CXCL10 mRNA at 160 mg/kg, po administered once daily for 2 weeks by qRT-PCR analysis", "format": "functional, organism-based"}, "[25]": {"assay": "Toxicity in BALB/c mouse harbouring mouse CT26 cells assessed as change in body weight at 40 to 120 mg/kg, po administered once daily for 2 weeks", "format": "organism-based", "conditions": "in vivo, 336 h, dose 40-120 mg/kg"}, "CT26 [26]": {"tested_on": "CT26", "assay": "Antitumor activity against mouse CT26 cells implanted in BALB/c mouse assessed as upregulation of human PD-L1 expression in tumor tissue at 40 mg/kg per day, po administered once daily for 2 weeks by Western blotting analysis", "format": "functional, organism-based"}, "CT26 [27]": {"tested_on": "CT26", "assay": "Antitumor activity against po dosed mouse CT26 cells implanted in BALB/c mouse assessed as tumor growth delay treated once daily for 2 weeks", "format": "functional, organism-based", "conditions": "dose 40-160 mg/kg"}}, "note": "Calls of active or inactive are those of the source. The calls are words filed in the database; no cut-off is given here.", "data": [{"smiles": "CC(=O)NCCNCc1ccc(Nc2nnc(-c3cccc(-c4ccccc4)c3C)o2)cc1", "values": [{"measurement": "IC50", "setting": "[1]", "value": 1800, "unit": "µM"}]}, {"smiles": "Cc1c(-c2ccccc2)cccc1-c1nnc(Nc2ccc(CNCC(=O)O)cc2)o1", "values": [{"measurement": "IC50", "setting": "[1]", "value": 516, "unit": "µM"}]}, {"smiles": "Cc1c(-c2ccccc2)cccc1-c1nnc(Nc2cccc(CNCCCO)c2)o1", "values": [{"measurement": "IC50", "setting": "[1]", "value": 55.9, "unit": "µM"}]}, {"smiles": "Cc1c(-c2ccccc2)cccc1-c1nnc(Nc2cccc(CNCC(=O)O)c2)o1", "values": [{"measurement": "IC50", "setting": "[1]", "value": 24.5, "unit": "µM"}]}, {"smiles": "Cc1c(-c2ccccc2)cccc1-c1nnc(Nc2cccc(CNCCO)c2)o1", "values": [{"measurement": "Activity", "setting": "B16-F10 [2]", "value": "Dose-Dependent Effect"}, {"measurement": "Activity", "setting": "CT26 [3]", "value": "Active"}, {"measurement": "Kd", "setting": "[4]", "value": 25, "unit": "nM"}, {"measurement": "Activity", "setting": "MDA-MB-231", "value": "Active"}, {"measurement": "Activity", "setting": "CT26 [5]", "value": 45, "unit": "%"}, {"measurement": "Activity", "setting": "B16-F10 [6]", "value": "Active"}, {"measurement": "Activity", "setting": "B16-F10 [7]", "value": "Active"}, {"measurement": "Activity", "setting": "CT26 [8]", "value": "Active"}, {"measurement": "Activity", "setting": "B16-F10 [9]", "value": "Dose-Dependent Effect"}, {"measurement": "IC50", "setting": "[1]", "value": 27.8, "unit": "µM"}, {"measurement": "Activity", "setting": "B16-F10 [10]", "value": "Active"}, {"measurement": "Activity", "setting": "B16-F10 [11]", "value": "Active"}, {"measurement": "Activity", "setting": "CT26 [12]", "value": 75, "unit": "%"}, {"measurement": "Activity", "setting": "CT26 [13]", "value": "Dose-Dependent Effect"}, {"measurement": "Activity", "setting": "B16-F10 [14]", "value": "Dose-Dependent Effect"}, {"measurement": "Activity", "setting": "CT26 [15]", "value": "Active"}, {"measurement": "Activity", "setting": "CT26 [16]", "value": "Active"}, {"measurement": "Activity", "setting": "B16-F10 [17]", "value": "Active"}, {"measurement": "Activity", "setting": "CT26 [18]", "value": 55, "unit": "%"}, {"measurement": "Activity", "setting": "CT26 [19]", "value": "Dose-Dependent Effect"}, {"measurement": "Kd", "setting": "[20]", "value": 480, "unit": "nM"}, {"measurement": "Activity", "setting": "B16-F10 [21]", "value": "Active"}, {"measurement": "Activity", "setting": "B16-F10 [22]", "value": "Active"}, {"measurement": "Activity", "setting": "[23]", "value": "Non-Toxic"}, {"measurement": "Activity", "setting": "CT26 [24]", "value": "Active"}, {"measurement": "Activity", "setting": "[25]", "value": "Non-Toxic"}, {"measurement": "Activity", "setting": "CT26 [26]", "value": "inactive"}, {"measurement": "Activity", "setting": "CT26 [27]", "value": "Dose-Dependent Effect"}]}, {"smiles": "Cc1c(-c2ccccc2)cccc1-c1nnc(Nc2cccc(CNCCN)c2)o1", "values": [{"measurement": "IC50", "setting": "[1]", "value": 152, "unit": "µM"}]}, {"smiles": "Cc1c(-c2ccccc2)cccc1-c1nnc(Nc2cccc(CN(C)CCO)c2)o1", "values": [{"measurement": "IC50", "setting": "[1]", "value": 67.1, "unit": "µM"}]}, {"smiles": "CC(=O)NCCNCc1cccc(Nc2nnc(-c3cccc(-c4ccccc4)c3C)o2)c1", "values": [{"measurement": "IC50", "setting": "[1]", "value": 34.1, "unit": "µM"}]}, {"smiles": "COc1ccc(Nc2nnc(-c3cccc(-c4ccccc4)c3C)o2)cc1", "values": [{"measurement": "IC50", "setting": "[1]", "value": 2.64, "unit": "µM"}]}, {"smiles": "COc1ccc(Nc2nnc(-c3ccc([N+](=O)[O-])cc3)o2)cc1", "values": [{"measurement": "IC50", "setting": "[1]", "value": 64.1, "unit": "µM"}]}, {"smiles": "Cc1c(-c2ccccc2)cccc1-c1nnc(Nc2cccc(CN[C@H](C)CO)c2)o1", "values": [{"measurement": "IC50", "setting": "[1]", "value": 70, "unit": "µM"}]}, {"smiles": "Cc1c(-c2ccccc2)cccc1-c1nnc(Nc2ccc(CNCCO)cc2)o1", "values": [{"measurement": "IC50", "setting": "[1]", "value": 744, "unit": "µM"}]}, {"smiles": "Cc1c(-c2ccccc2)cccc1-c1nnc(Nc2cccc(CN3CC[C@@H](O)C3)c2)o1", "values": [{"measurement": "IC50", "setting": "[1]", "value": 46.4, "unit": "µM"}]}, {"smiles": "COc1ccc(Nc2nnc(-c3ccc(-c4ccccc4)c(C)c3)o2)cc1", "values": [{"measurement": "IC50", "setting": "[1]", "value": "> 100", "unit": "µM"}]}, {"smiles": "Cc1c(-c2ccccc2)cccc1-c1nnc(Nc2cccc(CN3CCOCC3)c2)o1", "values": [{"measurement": "IC50", "setting": "[1]", "value": 64.1, "unit": "µM"}]}]}
